Measured values taken from patent publication US20240391931A1 (Bristol-Myers Squibb Company, priority 2021, published 2024).

What was measured:
HER2 WT = molecular target: T1, HER2 WT (Homo sapiens, UniProt P04626); experiment: Enzymatic assay HER2 WT (method a); type: biochemical; settings: [HER2 WT]=12.5 nM, [ATP]=25 μM, [Peptide 22]=1 μM
T1 construct: purchased ProQinase, Freiburg, Germany ERBB2 0108-0000-1
Procedure, shortened: (§1)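 Initial rates over 0–3600 s, read as substrate-to-product conversion by capillary electrophoresis, were converted to percent inhibition and fitted with a variable-slope curve to give IC50. Conditions: EGFR WT 2 nM with 1 mM ATP; HER2 YVMA 5 nM or HER2 WT 12.5 nM, each with 25 μM ATP. All used 1 μM Peptide 22 in pH 7.5 HEPES/Mn/Mg buffer.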

EGFR WT = molecular target: T2, EGFR WT (Homo sapiens, UniProt P00533); experiment: Enzymatic assay EGFR WT (method c); type: biochemical; settings: [EGFR WT]=2 nM, [ATP]=1 mM, [Peptide 22]=1 μM
T2 construct: purchased Thermo Fisher, Carlsbad, CA ERBB1 PR7295B
Procedure, shortened: as §1

HER2YVMA = HER2YVMA (Homo sapiens, UniProt P04626, INS775YVMA); experiment: Enzymatic assay HER2YVMA (method b); type: biochemical; set-up: purchased Viva biotech, Shanghai, China custom purification; settings: [HER2YVMA]=5 nM, [ATP]=25 μM, [Peptide 22]=1 μM
Procedure, shortened: as §1

EGFR = EGFR (Homo sapiens, UniProt P00533); experiment: EGFR signaling (pEGFR Tyr1068/total EGFR MSD) in A431 cells; type: cell-based; set-up: endogenous in cells; host or cells: A431, N87; settings: for EC50: A431 cells, read-out: A431 pEGFR EC50; for Selectivity A431 EC50/BT474 EC50: ratio A431 pEGFR EC50 to BT474 pHER2 EC50; for Selectivity A431 EC50/HEKYVMA EC50: ratio A431 pEGFR EC50 to HEK YVMA pHER2 EC50
Procedure, shortened: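 EC50 was fitted with variable Hill slope from MSD pTyr1068/total EGFR ratios, expressed as % DMSO control. A431 cells were starved overnight, then exposed 1.5 h to eight concentrations from 10 to 0.005 μM in 1% FBS before a 10-min 100 ng/mL EGF pulse.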

T1 sequence (P04626 23-1255): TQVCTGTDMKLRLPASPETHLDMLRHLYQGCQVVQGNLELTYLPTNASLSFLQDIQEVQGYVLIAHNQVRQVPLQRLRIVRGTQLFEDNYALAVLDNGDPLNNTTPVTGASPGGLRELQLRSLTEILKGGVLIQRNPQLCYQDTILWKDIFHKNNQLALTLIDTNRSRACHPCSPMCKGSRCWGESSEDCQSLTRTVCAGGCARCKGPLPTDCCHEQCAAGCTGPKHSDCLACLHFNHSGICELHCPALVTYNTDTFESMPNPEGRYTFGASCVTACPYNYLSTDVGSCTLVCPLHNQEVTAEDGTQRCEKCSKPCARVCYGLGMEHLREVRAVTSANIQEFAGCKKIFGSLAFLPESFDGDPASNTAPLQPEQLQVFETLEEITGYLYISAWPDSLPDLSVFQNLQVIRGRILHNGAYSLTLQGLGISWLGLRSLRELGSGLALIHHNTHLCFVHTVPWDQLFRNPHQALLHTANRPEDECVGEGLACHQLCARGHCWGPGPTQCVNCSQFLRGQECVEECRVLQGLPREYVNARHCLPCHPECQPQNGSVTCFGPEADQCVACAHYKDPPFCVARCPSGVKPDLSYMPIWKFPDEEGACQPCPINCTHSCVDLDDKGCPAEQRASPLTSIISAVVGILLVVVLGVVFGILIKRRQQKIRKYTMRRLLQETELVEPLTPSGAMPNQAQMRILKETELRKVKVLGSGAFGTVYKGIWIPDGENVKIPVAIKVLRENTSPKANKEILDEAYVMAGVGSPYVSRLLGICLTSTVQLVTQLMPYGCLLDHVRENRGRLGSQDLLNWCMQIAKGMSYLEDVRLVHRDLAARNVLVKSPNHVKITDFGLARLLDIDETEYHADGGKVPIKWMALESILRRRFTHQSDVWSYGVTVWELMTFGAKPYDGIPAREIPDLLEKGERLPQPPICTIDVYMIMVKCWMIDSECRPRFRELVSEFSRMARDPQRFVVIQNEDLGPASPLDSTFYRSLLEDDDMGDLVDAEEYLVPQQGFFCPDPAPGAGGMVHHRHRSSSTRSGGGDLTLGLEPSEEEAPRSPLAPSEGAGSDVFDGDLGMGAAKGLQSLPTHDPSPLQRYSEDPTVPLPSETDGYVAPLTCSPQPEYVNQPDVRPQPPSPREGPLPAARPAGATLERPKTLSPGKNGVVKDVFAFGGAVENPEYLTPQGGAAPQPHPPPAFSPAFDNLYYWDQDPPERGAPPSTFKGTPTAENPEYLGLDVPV
EGFR, sequence (P00533 25-1210): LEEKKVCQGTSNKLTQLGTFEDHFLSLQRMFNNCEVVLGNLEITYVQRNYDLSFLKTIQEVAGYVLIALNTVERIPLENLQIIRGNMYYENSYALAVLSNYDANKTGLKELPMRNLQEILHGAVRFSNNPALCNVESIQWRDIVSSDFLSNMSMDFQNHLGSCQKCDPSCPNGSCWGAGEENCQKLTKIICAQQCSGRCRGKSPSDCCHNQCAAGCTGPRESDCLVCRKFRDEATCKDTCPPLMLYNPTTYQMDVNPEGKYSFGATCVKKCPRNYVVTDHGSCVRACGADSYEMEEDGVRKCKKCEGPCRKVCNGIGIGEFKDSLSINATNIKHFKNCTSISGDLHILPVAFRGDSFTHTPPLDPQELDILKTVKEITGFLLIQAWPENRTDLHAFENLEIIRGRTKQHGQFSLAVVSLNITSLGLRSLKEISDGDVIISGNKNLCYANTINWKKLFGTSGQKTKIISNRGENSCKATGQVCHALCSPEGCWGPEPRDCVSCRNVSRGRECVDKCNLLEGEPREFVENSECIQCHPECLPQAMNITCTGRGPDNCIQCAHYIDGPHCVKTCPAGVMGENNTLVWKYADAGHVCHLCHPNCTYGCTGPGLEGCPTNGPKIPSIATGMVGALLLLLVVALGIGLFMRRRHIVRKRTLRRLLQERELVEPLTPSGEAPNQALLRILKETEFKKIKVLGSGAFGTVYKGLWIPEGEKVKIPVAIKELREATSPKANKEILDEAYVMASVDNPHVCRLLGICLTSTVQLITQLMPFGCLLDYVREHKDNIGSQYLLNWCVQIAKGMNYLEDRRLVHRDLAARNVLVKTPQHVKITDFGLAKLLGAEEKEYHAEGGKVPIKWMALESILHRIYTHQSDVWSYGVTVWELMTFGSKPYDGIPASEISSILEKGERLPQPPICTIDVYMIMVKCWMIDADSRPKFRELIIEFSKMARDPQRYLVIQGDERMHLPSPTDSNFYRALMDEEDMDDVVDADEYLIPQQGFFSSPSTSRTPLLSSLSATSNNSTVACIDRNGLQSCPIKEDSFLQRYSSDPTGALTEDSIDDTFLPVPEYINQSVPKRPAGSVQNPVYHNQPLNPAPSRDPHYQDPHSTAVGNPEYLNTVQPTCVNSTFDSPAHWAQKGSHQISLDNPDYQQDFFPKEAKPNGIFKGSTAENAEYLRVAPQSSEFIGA
T2 sequence (P00533 25-1210): as above
HER2YVMA, sequence (P04626 with tags, fused parts or gaps INS775YVMA): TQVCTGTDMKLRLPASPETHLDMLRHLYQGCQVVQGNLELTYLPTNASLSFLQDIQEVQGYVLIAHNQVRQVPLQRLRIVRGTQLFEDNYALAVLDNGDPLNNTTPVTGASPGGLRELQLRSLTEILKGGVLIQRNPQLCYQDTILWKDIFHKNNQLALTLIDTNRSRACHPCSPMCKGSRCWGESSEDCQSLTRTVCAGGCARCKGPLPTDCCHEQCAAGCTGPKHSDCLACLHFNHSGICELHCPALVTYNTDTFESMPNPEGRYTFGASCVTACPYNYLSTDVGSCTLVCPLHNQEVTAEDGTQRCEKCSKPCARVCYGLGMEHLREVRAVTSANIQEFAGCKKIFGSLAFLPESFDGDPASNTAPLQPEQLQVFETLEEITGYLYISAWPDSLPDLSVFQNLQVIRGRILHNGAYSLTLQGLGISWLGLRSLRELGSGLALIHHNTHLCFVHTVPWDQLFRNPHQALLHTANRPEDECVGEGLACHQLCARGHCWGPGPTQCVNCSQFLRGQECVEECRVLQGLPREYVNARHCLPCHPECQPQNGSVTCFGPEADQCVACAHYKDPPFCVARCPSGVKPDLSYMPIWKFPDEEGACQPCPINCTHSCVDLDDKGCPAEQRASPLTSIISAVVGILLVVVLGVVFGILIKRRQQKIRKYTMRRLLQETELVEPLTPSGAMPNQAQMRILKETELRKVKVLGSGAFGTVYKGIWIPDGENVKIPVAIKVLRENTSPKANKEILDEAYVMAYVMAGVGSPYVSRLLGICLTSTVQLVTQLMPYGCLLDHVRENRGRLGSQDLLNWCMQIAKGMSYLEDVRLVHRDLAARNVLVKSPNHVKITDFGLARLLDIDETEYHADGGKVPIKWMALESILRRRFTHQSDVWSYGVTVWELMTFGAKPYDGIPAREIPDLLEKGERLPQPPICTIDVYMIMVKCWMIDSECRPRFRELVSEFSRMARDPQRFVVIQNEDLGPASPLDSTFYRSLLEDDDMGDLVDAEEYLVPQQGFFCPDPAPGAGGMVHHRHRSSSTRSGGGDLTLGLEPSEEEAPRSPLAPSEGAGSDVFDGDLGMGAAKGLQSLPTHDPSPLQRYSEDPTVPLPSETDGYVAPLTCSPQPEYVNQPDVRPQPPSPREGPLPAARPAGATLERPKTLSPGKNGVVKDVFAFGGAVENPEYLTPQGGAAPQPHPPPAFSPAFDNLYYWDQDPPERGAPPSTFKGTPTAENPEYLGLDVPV

Row | Compound | IC50 (HER2 WT) | IC50 (EGFR WT) | IC50 (HER2YVMA) | EC50 (EGFR) | Selectivity A431 EC50/BT474 EC50 (EGFR) | Selectivity A431 EC50/HEKYVMA EC50 (EGFR)
1 | Cc1ccc(Oc2ccc(Nc3ncnc4sc5c(c34)CCN(C(=O)/C=C/CN[C@@H](C)CO)C5)cc2C)cn1 [Compound 75] | < 0.1 µM | 1 to 10 µM | < 0.1 µM | < 0.1 µM | D (D: ≥ 5 and < 10) | D (D: ≥ 5 and < 10)
2 | Cc1ccc(Oc2ccc(Nc3ncnc4sc5c(c34)CCN(C(=O)/C=C/CN3CC4CC4C3)C5)cc2C)cn1 (stereo not drawn) [Compound 76] | < 0.1 µM | 1 to 10 µM | < 0.1 µM | < 0.1 µM | C (C: ≥ 10 and < 20) | C (C: ≥ 10 and < 20)
3 | Cc1cc(Nc2ncnc3sc4c(c23)CCN(C(=O)/C=C/CN2CC3CC2CO3)C4)ccc1Oc1ccc2ncnn2c1 (stereo not drawn) [Compound 77] | 0.1 to 1 µM | > 10 µM | 0.1 to 1 µM | 1 to 10 µM | B (B: ≥ 20 and < 100) | D (D: ≥ 5 and < 10)
4 | Cc1cc(Nc2ncnc3sc4c(c23)CCN(C(=O)/C=C/CN(C)C(C)(C)C)C4)ccc1Oc1ccc2ncnn2c1 [Compound 80] | < 0.1 µM | > 10 µM | < 0.1 µM | 0.1 to 1 µM | B (B: ≥ 20 and < 100) | B (B: ≥ 20 and < 100)
5 | Cc1cc(Nc2ncnc3sc4c(c23)CCN(C(=O)/C=C/CN2CC3C(CO)C3C2)C4)ccc1Oc1ccc2ncnn2c1 (stereo not drawn) [Compound 81] | < 0.1 µM | > 10 µM | < 0.1 µM | 0.1 to 1 µM | B (B: ≥ 20 and < 100) | C (C: ≥ 10 and < 20)
6 | Cc1cc(Nc2ncnc3sc4c(c23)CCN(C(=O)/C=C/CN2CC3CC(C3)C2)C4)ccc1Oc1ccc2ncnn2c1 [Compound 82] | < 0.1 µM | > 10 µM | < 0.1 µM | 0.1 to 1 µM | C (C: ≥ 10 and < 20) | C (C: ≥ 10 and < 20)
7 | Cc1cc(Nc2ncnc3sc4c(c23)CCN(C(=O)/C=C/CN2CC(C)OC(C)C2C)C4)ccc1Oc1ccc2ncnn2c1 (stereo not drawn) [Compound 83] | 0.1 to 1 µM | > 10 µM | 0.1 to 1 µM | 1 to 10 µM | A (A: ≥100) | B (B: ≥ 20 and < 100)
8 | Cc1cc(Nc2ncnc3sc4c(c23)CCN(C(=O)/C=C/CN2CC(C)(C)OC(C)(C)C2)C4)ccc1Oc1ccc2ncnn2c1 [Compound 84] | 0.1 to 1 µM | > 10 µM | 0.1 to 1 µM | > 10 µM | A (A: ≥100) | B (B: ≥ 20 and < 100)
9 | O=C(/C=C/CN1CC2CC(C2)C1)N1CCc2c(sc3ncnc(Nc4ccc(Oc5ccc6ncnn6c5)c(Cl)c4)c23)C1 [Compound 85] | < 0.1 µM | 1 to 10 µM | < 0.1 µM | 0.1 to 1 µM | C (C: ≥ 10 and < 20) | C (C: ≥ 10 and < 20)
10 | C=C(CN1CCc2c(sc3ncnc(Nc4ccc(Oc5ccc(C)nc5)c(C)c4)c23)C1)C(=O)OCC [Compound 86, Ethyl 2-((4-((3-methyl-4-((6-methylpyridin-3-yl)oxy)phenyl)amino)-5,8-dihydropyrido[4′,3′:4,5]thieno[2,3-d]pyrimidin-7(6H)-yl)methyl)acrylate] | 0.1 to 1 µM | > 10 µM | 1 to 10 µM | > 10 µM | B (B: ≥ 20 and < 100) | A (A: ≥100)
11 | O=C(/C=C/CN1CC2CC1CO2)N1CCc2c(sc3ncnc(Nc4ccc(Oc5ccc6ncnn6c5)c(Cl)c4)c23)C1 (stereo not drawn) [Compound 87] | < 0.1 µM | 1 to 10 µM | < 0.1 µM | < 0.1 µM | B (B: ≥ 20 and < 100) | D (D: ≥ 5 and < 10)
12 | O=C(/C=C/CN1CC2CCC(C2)C1)N1CCc2c(sc3ncnc(Nc4ccc(Oc5ccc6ncnn6c5)c(Cl)c4)c23)C1 [Compound 88] | < 0.1 µM | > 10 µM | < 0.1 µM | < 0.1 µM | C (C: ≥ 10 and < 20) | C (C: ≥ 10 and < 20)
13 | CN(C/C=C/C(=O)N1CCc2c(sc3ncnc(Nc4ccc(Oc5ccc6ncnn6c5)c(Cl)c4)c23)C1)C(C)(C)C [Compound 91] | < 0.1 µM | > 10 µM | < 0.1 µM | < 0.1 µM | C (C: ≥ 10 and < 20) | D (D: ≥ 5 and < 10)
14 | O=C(/C=C/CN1CC2C(CO)C2C1)N1CCc2c(sc3ncnc(Nc4ccc(Oc5ccc6ncnn6c5)c(Cl)c4)c23)C1 (stereo not drawn) [Compound 92] | < 0.1 µM | > 10 µM | < 0.1 µM | < 0.1 µM | C (C: ≥ 10 and < 20) | C (C: ≥ 10 and < 20)
15 | C=CC(=O)N1CCc2[nH]c3ncnc(Nc4ccc(Oc5ccc(C)nc5)c(C)c4)c3c2C1 [Compound 94, 1-(4-((3-methyl-4-((6-methylpyridin-3-yl)oxy)phenyl)amino)-7,8-dihydro-5H-pyrido[3′,4′:4,5]pyrrolo[2,3-d]pyrimidin-6(9H)-yl)prop-2-en-1-one] | < 0.1 µM | > 10 µM | < 0.1 µM | 0.1 to 1 µM | C (C: ≥ 10 and < 20) | E (E: >1 and < 5)
16 | COc1ccc(Oc2ccc(Nc3ncnc4sc5c(c34)CCN(C(=O)/C=C/CN(C)C)C5)cc2C)cn1 [Compound 95, (E)-4-(Dimethylamino)-1-(4-((4-((6-methoxypyridin-3-yl)oxy)-3-methylphenyl)amino)-5,6-dihydropyrido[4′,3′:4,5]thieno[2,3-d]pyrimidin-7(8H)-yl)but-2-en-1-one] | < 0.1 µM | > 10 µM | < 0.1 µM | 0.1 to 1 µM | D (D: ≥ 5 and < 10) | C (C: ≥ 10 and < 20)
17 | CCOC/C=C/C(=O)N1CCc2c(sc3ncnc(Nc4ccc(Oc5ccc(C)nc5)c(C)c4)c23)C1 [Compound 96, (E)-4-ethoxy-1-(4-((3-methyl-4-((6-methylpyridin-3-yl)oxy)phenyl)amino)-5,8-dihydropyrido[4′,3′:4,5]thieno[2,3-d]pyrimidin-7(6H)-yl)but-2-en-1-one] | < 0.1 µM | > 10 µM | < 0.1 µM | 0.1 to 1 µM | C (C: ≥ 10 and < 20) | D (D: ≥ 5 and < 10)
18 | Cc1ccc(Oc2ccc(Nc3ncnc4[nH]c5c(c34)CN(C(=O)/C=C/CN(C)C)CC5)cc2C)cn1 [Compound 97, (E)-4-(dimethylamino)-1-(4-((3-methyl-4-((6-methylpyridin-3-yl)oxy)phenyl)amino)-5,7,8,9-tetrahydro-6H-pyrido[3′,4′:4,5]pyrrolo[2,3-d]pyrimidin-6-yl)but-2-en-1-one] | < 0.1 µM | > 10 µM | < 0.1 µM | 0.1 to 1 µM | B (B: ≥ 20 and < 100) | E (E: >1 and < 5)
19 | Cc1ccc(Oc2ccc(Nc3ncnc4sc5c(c34)C(C)CN(C(=O)/C=C/CN(C)C)C5)cc2C)cn1 (stereo not drawn) [Compound 98, (E)-4-(dimethylamino)-1-(5-methyl-4-((3-methyl-4-((6-methylpyridin-3-yl)oxy)phenyl)amino)-5,8-dihydropyrido[4′,3′:4,5]thieno[2,3-d]pyrimidin-7(6H)-yl)but-2-en-1-one] | < 0.1 µM | > 10 µM | < 0.1 µM | 0.1 to 1 µM | C (C: ≥ 10 and < 20) | D (D: ≥ 5 and < 10)
20 | Cc1ccc(Oc2ccc(Nc3ncnc4sc5c(c34)CN(C(=O)/C=C/CN(C)C)C5)cc2C)cn1 [Compound 99, (E)-4-(dimethylamino)-1-(4-((3-methyl-4-((6-methylpyridin-3-yl)oxy)phenyl)amino)-5,7-dihydro-6H-pyrrolo[3′,4′:4,5]thieno[2,3-d]pyrimidin-6-yl)but-2-en-1-one] | 0.1 to 1 µM | > 10 µM | < 0.1 µM | 0.1 to 1 µM | B (B: ≥ 20 and < 100) | B (B: ≥ 20 and < 100)
21 | Cc1ccc(Oc2ccc(Nc3ncnc4sc5c(c34)CCN(C(=O)/C=C/CN(C)C)CC5)cc2C)cn1 [Compound 100, (E)-4-(dimethylamino)-1-(4-((3-methyl-4-((6-methylpyridin-3-yl)oxy)phenyl)amino)-8,9-dihydro-5H-pyrimido[5′,4′:4,5]thieno[2,3-d]azepin-7(6H)-yl)but-2-en-1-one] | 0.1 to 1 µM | > 10 µM | 0.1 to 1 µM | 0.1 to 1 µM | B (B: ≥ 20 and < 100) | C (C: ≥ 10 and < 20)
